Experimental findings from US20190256827A1, “EPIGENOME EDITING SYSTEMS AND METHODS” (STC.UNM, priority 2017, published 2019) are described below.

In assay [1] the test system is HBA locus in HEK293T cells. Kind of assay: ChIP-qPCR of FLAG-ABI-P300 and H3K27Ac at the HBA locus. Particulars: HBA sgRNAs; ABA treatment for 48 hours. The assay is classed as cell-based, human. The protocol: (§1) To determine if the new method can be used to modify H3K27Ac at other gene loci, sgRNAs were designed that target the promoter region of other genes with low expression levels in HEK293T cells, including GRM2, HBA and MYOD1 (Table 1).
Human embryonic kidney cell HEK293T (American Type Culture Collection, Manassas, Va.) was cultured in Dulbecco's modified Eagle's medium (DMEM) (Gibco) with 10% FBS (Atlanta Biologicals), 1× GlutaMax (Gibco, Thermo Fisher Scientific, Inc., Waltham, Mass.), and 1× penicillin/streptomycin (Pen/Strep; Gibco, Thermo Fisher Scientific, Inc., Waltham, Mass.). Cells (100,000/ml) were plated in 24-well or 10-cm cell culture plate the day before transfection. For each well of 24-well plate transfection, 500 ng of dCas9-PYL-HA, 420 ng of FLAG-ABI-P300, and a total amount of 200-ng mix of gRNAs, with a 50-ng per each gRNA, were mixed with 50×(v/w) Opti-MEM (Gibco, Thermo Fisher Scientific, Inc., Waltham, Mass.), then incubate with the same volume of 3 μg PEI-Opti-MEM solution for 20 minutes at room temperature. Then, 100 μL of PEI-combined plasmids were added to every single well of 24-well plate and cultured for 24 hours before experiments were performed. For a 10 cm plate, 1 mL of PEI-combined plasmids were needed. After six hours transfection, cells were washed and incubated for another 1-72 hours before experiments were performed. […]

Assay [2] has as its system GRM2 mRNA in HEK293T cells. Briefly: qPCR of GRM2 mRNA levels. Particulars: GRM2 sgRNAs; ABA vs DMSO. Type of assay: cell-based, human. The protocol: as §1
Human embryonic kidney cell HEK293T (American Type Culture Collection, Manassas, Va.) was cultured in Dulbecco's modified Eagle's medium (DMEM) (Gibco) with 10% FBS (Atlanta Biologicals), 1× GlutaMax (Gibco, Thermo Fisher Scientific, Inc., Waltham, Mass.), and 1× penicillin/streptomycin (Pen/Strep; Gibco, Thermo Fisher Scientific, Inc., Waltham, Mass.). Cells (100,000/ml) were plated in 24-well or 10-cm cell culture plate the day before transfection. […]
Total RNA was extracted using the EZNA Total RNA Kit I (Omega Bio-tek, Inc., Norcross, Ga.). qPCR reactions were performed on cDNA prepared from 1,000 ng of total cellular RNA using the High-Capacity cDNA Reverse Transcription Kit (Applied Biosystems Co., Thermo Fisher Scientific, Inc., Foster City, Calif.). […] Data were analyzed using the SDS software, version 2.4 (Applied Biosystems Co., Thermo Fisher Scientific, Inc., Foster City, Calif.), by the ΔΔCt method: the Ct values of target gene were normalized to Ct values of GAPDH, the folds of target gene expression changes were normalized to experimental controls. Analyzed data are reported as the mean±s.e.m. for biological replicates. […]
A general note: Real-time PCR tracks product formation cycle by cycle.

Each structure is given as a SMILES string.

Regarding `CC1=CC(=O)CC(C)(C)[C@@]1(O)/C=C/C(C)=C\C(=O)O` [ABA, abscisic acid], in assay [1], the “enrichment of FLAG-ABI-P300 at the HBA locus” value is reported as “causes the enrichment” and the “enrichment of H3K27Ac at the HBA locus” value is reported as “causes the enrichment”. Moreover, the “level of GRM2 mRNA” value in assay [2] was “increases correspondingly”.
